Measurements reported in the NIST ThermoML archive (doi:10.1021/je900027h).
Numbers after ± are expanded uncertainties.

Conditions: Crystal; DTA

For `c1ccc2c(c1)ccc1ccccc12` [phenanthrene], the Normal melting temperature was 104.92 ± 0.5 °C.
